Results published in US20080145858A1, “DETECTION AND IDENTIFICATION OF TOXICANTS BY MEASUREMENT OF GENE […]” (priority 2003, published 2008).
Marks after values point to notes of the source that are not given here.

Test system: Xenopus laevis neurulation stage embryos (stage 15)
Assay: Xenopus cDNA microarray, differential gene expression after PMA treatment during neurulation (Group II)
Format: in vivo
Conditions: for Cy3/Cy5 by Landmarks (0.25) / Cy3/Cy5 by all Data Points (0.469) / Normalized by Landmarks (0.25) / Normalized by all Data Points (0.469) / Ratio of Medians (Cy5/Cy3) First Spot / Ratio of Medians (Cy5/Cy3) Mean / Ratio of Medians (Cy5/Cy3) Second Spot: PMA, stage 15; for % increase of mRNA expression by Microarray analysis (NF by all data point): Stage 15
Excerpt: Specifically, the method and screen of the present invention function as follows. EST clones produced from Xenopus laevis unfertilized eggs were used in the present study with ˜1,200 EST clones from a 18,500 EST clone set selected for production of a Xenopus cDNA microarray. The Xenopus microarray was used to measure the effect of chemical treatment on Xenopus embryo gene regulation. The chemical treatment was a phorbol ester, PMA. Xenopus eggs were obtained from females induced for ovulation and fertilized in vitro. Control Xenopus laevis embryos were allowed to develop to stage 8 blastula or stage 15 neurula. Treated embryos were exposed to PMA during cleavage stage or during neurulation with end points of blastula (stage 8) or neurula (stage 15). Specifically, PMA 100 ng/ml was added to the incubation media during cleavage stages for evaluation in stage 8 embryo or PMA was added during neural induction for evaluation in stage 15 embryos. RNA extracted from the embryos was used to generate fluorescent cDNA probes for Xenopus microarray analyses to measure differential gene expression with and without the phorbol ester treatment. Analysis was performed using paired RNA samples to compare PMA-treated and untreated embryos: Group I measured the effects of PMA-treatment during the cleavage stage in stage 8 embryos and Group II measured the effects of PMA-treatment during neurulation in stage 15 embryos. Group III measured the change in gene expression between stage 8 and stage 15 embryos.
cDNA fragments were obtained by PCR replication of Xenopus laevis unfertilized egg cDNA inserts, purified, quantitated and loaded onto glass chips by robotics. In addition to the selected ˜1,200 genes, 64 lambda Q gene, an internal control cDNA (Genomic Solutions, Inc., Ann Arbor, Mich.) was loaded on the chip. The insert DNA from ˜1,200 clones were PCR amplified using forward and reverse primers (GF.200 primers, Research Genetics, Huntsville, Ala.). A second PCR was carried out using 1 μl of the primary PCR (20 μl) for template. Excess dNTPs, polymerase and other PCR artifacts were removed from the secondary PCR reactions using Millipore Multiscreen plates (Millipore Corporation, Bedford, Mass.) using the standard protocol. The purity of the PCR products was assessed by electrophoresis and documented using an Alphalmager 1000 Digital Imaging System (Alpha Innotech Corporation, San Leandro, Calif.). The DNA obtained by PCR was quantitated using PicoGreen (Molecular Probes, Eugene, Oreg.). The DNA was denatured and arrayed onto amino-silane coated microscope slides (CMT-GAPS coated slides, Corning, Corning, N.Y.) using a Flexys robotic workstation (Genomic Solutions Inc.). The ˜1,200 PCR products were arrayed in duplicate on each slide and cross-linked. Each gene chip contained duplicate cDNA samples.
Total RNA was prepared from embryos treated in three separate dishes per treatment group that were pooled. Total RNA was isolated from the frog embryos (1,200 embryos for each probe production) using TRIzol extraction (Gibco BRL, Grand Island, N.Y.) and Qiagen RNeasy kits (Qiagen, Valencia, Calif.). The ethanol precipitated RNA was resuspended in RNase-free water, quantitated with RiboGreen (Molecular Probes, Eugene, Oreg.). Total RNA was further purified using oligoTex mRNA maxi kit (Qiagen Co.) with the bound mRNA eluted with minimum volume of elution buffer and precipitated with ethanol. The recovery rate of mRNA by the ethanol precipitation method was ˜70%. Cy3- or Cy5-tagged probes were produced from an mRNA mixture (20 μl) of Xenopus mRNA (5 μg) and lambda Q gene mRNA (3.5 ng) reverse-transcribed with oligo(dT)18-22 primer and dNTPs and the reverse-transcribed cDNA was cross-linked with Cy3 or Cy5 as described in Clontech Atlas™ Glass Fluorescent Labeling kit manual (www.clontech.com). After hydrolysis of the RNA and purification of the probe (Centricon 50, Millipore, Bedford, Mass.), the cDNA in TE buffer was quantitated by absorbance at 260 nm. […]

## CCCCCCCCCCCCCC(=O)O[C@@H]1[C@@H](C)[C@@]2(O)[C@@H](C=C(CO)C[C@]3(O)C(=O)C(C)=C[C@@H]23)[C@@H]2C(C)(C)[C@]12OC(C)=O [PMA, phorbol 12-myristate 12-acetate]
PBX0135G07 mRNA
  Cy3/Cy5 by Landmarks (0.25): 3.95
  Cy3/Cy5 by all Data Points (0.469): 2.11
  Normalized by Landmarks (0.25): 0.253
  Normalized by all Data Points (0.469): 0.474
  Ratio of Medians (Cy5/Cy3) First Spot: 0.98
  Ratio of Medians (Cy5/Cy3) Mean: 1.01 ± 0.03 ^a
  Ratio of Medians (Cy5/Cy3) Second Spot: 1.04
PBX0135H08 mRNA
  Cy3/Cy5 by Landmarks (0.25): 4.93
  Cy3/Cy5 by all Data Points (0.469): 2.63
  Normalized by Landmarks (0.25): 0.203
  Normalized by all Data Points (0.469): 0.380
  Ratio of Medians (Cy5/Cy3) First Spot: 0.78
  Ratio of Medians (Cy5/Cy3) Mean: 0.81 ± 0.03 ^a
  Ratio of Medians (Cy5/Cy3) Second Spot: 0.84
PBX 0136C09 mRNA
  Normalized by Landmarks (0.25): 1.53
  Normalized by all Data Points (0.469): 2.87
  Ratio of Medians (Cy5/Cy3) First Spot: 4.19
  Ratio of Medians (Cy5/Cy3) Mean: 6.12 ± 1.93 ^a
  Ratio of Medians (Cy5/Cy3) Second Spot: 8.05
PBX 0136C12 mRNA
  Normalized by Landmarks (0.25): 1.51
  Normalized by all Data Points (0.469): 2.82
  Ratio of Medians (Cy5/Cy3) First Spot: 5.29
  Ratio of Medians (Cy5/Cy3) Mean: 6.02 ± 0.73 ^a
  Ratio of Medians (Cy5/Cy3) Second Spot: 6.75
PBX 0136F03 mRNA
  Normalized by Landmarks (0.25): 1.54
  Normalized by all Data Points (0.469): 2.90
  Ratio of Medians (Cy5/Cy3) First Spot: 3.67
  Ratio of Medians (Cy5/Cy3) Mean: 6.18 ± 2.5 ^a
  Ratio of Medians (Cy5/Cy3) Second Spot: 8.68
PBX 0136G06 mRNA
  Normalized by Landmarks (0.25): 1.36
  Normalized by all Data Points (0.469): 2.54
  Ratio of Medians (Cy5/Cy3) First Spot: 4.95
  Ratio of Medians (Cy5/Cy3) Mean: 5.42 ± 0.47 ^a
  Ratio of Medians (Cy5/Cy3) Second Spot: 5.89
PBX 0136G08 mRNA
  Normalized by Landmarks (0.25): 1.36
  Normalized by all Data Points (0.469): 2.54
  Ratio of Medians (Cy5/Cy3) First Spot: 4.48
  Ratio of Medians (Cy5/Cy3) Mean: 5.43 ± 0.94 ^a
  Ratio of Medians (Cy5/Cy3) Second Spot: 6.37
PBX0137F04 mRNA
  Cy3/Cy5 by Landmarks (0.25): 3.70
  Cy3/Cy5 by all Data Points (0.469): 1.97
  Normalized by Landmarks (0.25): 0.270
  Normalized by all Data Points (0.469): 0.507
  Ratio of Medians (Cy5/Cy3) First Spot: 0.95
  Ratio of Medians (Cy5/Cy3) Mean: 1.08 ± 0.13 ^a
  Ratio of Medians (Cy5/Cy3) Second Spot: 1.21
PBX 0138E11 mRNA
  Normalized by Landmarks (0.25): 1.57
  Normalized by all Data Points (0.469): 2.95
  Ratio of Medians (Cy5/Cy3) First Spot: 5.02
  Ratio of Medians (Cy5/Cy3) Mean: 6.29 ± 1.27 ^a
  Ratio of Medians (Cy5/Cy3) Second Spot: 7.56
PBX 0138H03 mRNA
  Normalized by Landmarks (0.25): 1.44
  Normalized by all Data Points (0.469): 2.70
  Ratio of Medians (Cy5/Cy3) First Spot: 6.36
  Ratio of Medians (Cy5/Cy3) Mean: 5.75 ± 0.61 ^a
  Ratio of Medians (Cy5/Cy3) Second Spot: 5.14
PBX0139G06 mRNA
  Cy3/Cy5 by Landmarks (0.25): 3.77
  Cy3/Cy5 by all Data Points (0.469): 2.01
  Normalized by Landmarks (0.25): 0.265
  Normalized by all Data Points (0.469): 0.497
  Ratio of Medians (Cy5/Cy3) First Spot: 1.06
  Ratio of Medians (Cy5/Cy3) Mean: 1.06 ± 0.00 ^a
  Ratio of Medians (Cy5/Cy3) Second Spot: 1.06
PBX0140A10 mRNA
  Cy3/Cy5 by Landmarks (0.25): 4.20
  Cy3/Cy5 by all Data Points (0.469): 2.24
  Normalized by Landmarks (0.25): 0.238
  Normalized by all Data Points (0.469): 0.446
  Ratio of Medians (Cy5/Cy3) First Spot: 0.89
  Ratio of Medians (Cy5/Cy3) Mean: 0.95 ± 0.06 ^a
  Ratio of Medians (Cy5/Cy3) Second Spot: 1.00
PBX0141B10 mRNA
  Cy3/Cy5 by Landmarks (0.25): 3.92
  Cy3/Cy5 by all Data Points (0.469): 2.09
  Normalized by Landmarks (0.25): 0.255
  Normalized by all Data Points (0.469): 0.478
  Ratio of Medians (Cy5/Cy3) First Spot: 0.92
  Ratio of Medians (Cy5/Cy3) Mean: 1.02 ± 0.10 ^a
  Ratio of Medians (Cy5/Cy3) Second Spot: 1.12
PBX0141H05 mRNA
  Cy3/Cy5 by Landmarks (0.25): 10.8
  Cy3/Cy5 by all Data Points (0.469): 5.76
  Normalized by Landmarks (0.25): 0.093
  Normalized by all Data Points (0.469): 0.174
  Ratio of Medians (Cy5/Cy3) First Spot: 0.73
  Ratio of Medians (Cy5/Cy3) Mean: 0.37 ± 0.36 ^a
  Ratio of Medians (Cy5/Cy3) Second Spot: 0.015
PBX 0141H12 mRNA
  Normalized by Landmarks (0.25): 1.40
  Normalized by all Data Points (0.469): 2.63
  Ratio of Medians (Cy5/Cy3) First Spot: 7.46
  Ratio of Medians (Cy5/Cy3) Mean: 5.61 ± 1.85 ^a
  Ratio of Medians (Cy5/Cy3) Second Spot: 3.75
PBX 0143E06 mRNA
  Normalized by Landmarks (0.25): 1.60
  Normalized by all Data Points (0.469): 3.01
  Ratio of Medians (Cy5/Cy3) First Spot: 6.04
  Ratio of Medians (Cy5/Cy3) Mean: 6.41 ± 0.3 ^a
  Ratio of Medians (Cy5/Cy3) Second Spot: 6.78
PBX 0143E11 mRNA
  Normalized by Landmarks (0.25): 1.41
  Normalized by all Data Points (0.469): 2.64
  Ratio of Medians (Cy5/Cy3) First Spot: 4.62
  Ratio of Medians (Cy5/Cy3) Mean: 5.64 ± 1.01 ^a
  Ratio of Medians (Cy5/Cy3) Second Spot: 6.65
PBX0144A09 mRNA
  Cy3/Cy5 by Landmarks (0.25): 4.00
  Cy3/Cy5 by all Data Points (0.469): 2.13
  Normalized by Landmarks (0.25): 0.250
  Normalized by all Data Points (0.469): 0.469
  Ratio of Medians (Cy5/Cy3) First Spot: 0.83
  Ratio of Medians (Cy5/Cy3) Mean: 1.00 ± 0.17 ^a
  Ratio of Medians (Cy5/Cy3) Second Spot: 1.16
PBX0145D04 mRNA
  Cy3/Cy5 by Landmarks (0.25): 4.35
  Cy3/Cy5 by all Data Points (0.469): 2.32
  Normalized by Landmarks (0.25): 0.230
  Normalized by all Data Points (0.469): 0.431
  Ratio of Medians (Cy5/Cy3) First Spot: 0.9
  Ratio of Medians (Cy5/Cy3) Mean: 0.92 ± 0.02 ^a
  Ratio of Medians (Cy5/Cy3) Second Spot: 0.95
PBX0145D06 mRNA
  Cy3/Cy5 by Landmarks (0.25): 4.03
  Cy3/Cy5 by all Data Points (0.469): 2.15
  Normalized by Landmarks (0.25): 0.248
  Normalized by all Data Points (0.469): 0.464
  Ratio of Medians (Cy5/Cy3) First Spot: 0.98
  Ratio of Medians (Cy5/Cy3) Mean: 0.99 ± 0.01 ^a
  Ratio of Medians (Cy5/Cy3) Second Spot: 1.00
Gene PBX0135A08
  % increase of mRNA expression by Microarray analysis (NF by all data point): no change
Gene PBX013409
  % increase of mRNA expression by Microarray analysis (NF by all data point): no change
